We go through 4 molecules from patent publication US20260041693A1, “COMBINATION THERAPY OF CDK7 INHIBITORS WITH OTHER ANTI-CANCER THERAPIES” (QURIENT CO., LTD., priority 2022, published 2026).

The term TGI denotes the reduction of tumour growth relative to the control group.

One assay concerns MCF7 tumor. The assay can be described thus: MCF7 human breast adenocarcinoma xenograft model. Format: in vivo, BALB/c nude mice. The following applies: compound 47 3 mg/kg i.p. every day; fulvestrant 2.5 mg/dose s.c. every day; alone or both. The procedure:
MCF7 cells (1×10^7) mixed with matrigel (50:50) were subcutaneously implanted in the right flank of female BALB/c nude mice. Tumor-bearing mice were randomized and treated with compound 47 (3 mg/kg, intraperitoneally every day), fulvestrant (2.5 mg/dose, subcutaneously every day), or both compound 47 and fulvestrant when the average tumor volume reached 117 mm^3 (N=8 per group). Tumor volume and body weight were measured twice per week. […] On day 28, tumor volume of the compound 47 with fulvestrant combination group was reduced compared to the compound 47 alone group or the fulvestrant treatment group.
(In general: A xenograft is tissue or cells of one species grown in another, often human tumour cells in immunodeficient mice.)

For assay [1], the system named is g-H2AX foci in OVCAR3 cells. Description: g-H2AX foci imaging in OVCAR3 cells after cisplatin. Format: cell-based, human. To be noted: 100 nM cisplatin 24 hours, wash, then Compound 47, 24, 48 and 72 hours. The procedure:
OVCAR3 cells were treated with DMSO or 100 nM of cisplatin for 24 hours. Cells were then washed with culture media and treated with Compound 47 at various concentrations. Cells were collected 24, 48 and 72 hours after cisplatin wash and then stained with 4′,6-diamidino-2-phenylindole (DAPI) and anti-phospho-histone H2AX ([…]). g-H2AX foci inside the nucleus were identified by Alexa-568 staining. Fluorescence images of g-H2AX foci were captured using a confocal imaging system, CQ1 (×40 objective).

For the next assay, the system named is RENCA tumor. Description: RENCA syngeneic renal tumor mouse model. It is filed as in vivo, BALB/c mice. To be noted: compound 47 10 mg/kg i.p. every day; anti-PD-1 antibody 10 mg/kg i.p. twice a week; alone or both. The procedure:
RENCA cells (1×10^5) were subcutaneously implanted in the right flank of BALB/c mice. Tumor-bearing mice were randomized and then treated with compound 47 (10 mg/kg, intraperitoneally every day), anti-PD-1 antibody (10 mg/kg, intraperitoneally twice a week, clone: RMP1-14, Bio X Cell), or both compound 47 and anti-PD-1 antibody when the average tumor volume reached 31 mm^3 (N=7 or 8 per group). Control mice were treated with vehicle and rat IgG2a isotype control antibody (clone: 2A3, Bio X Cell). Tumor volume and body weight were measured twice per week.

The test system of a further assay is DU145 tumor. The assay can be described thus: DU145 castration-resistant prostate cancer cell line-derived xenograft model. It is filed as in vivo, BALB/c nude mice. The following applies: compound 47 3 mg/kg i.p. every day; docetaxel 15 mg/kg i.p. once a week; alone or both. Here is the method:
DU145 cells (1×10^7) mixed with matrigel (50:50) were subcutaneously implanted in the right flank of male BALB/c nude mice. Tumor-bearing mice were randomized and then treated with compound 47 (3 mg/kg, intraperitoneally every day), docetaxel (15 mg/kg, intraperitoneally once a week), or both compound 47 and docetaxel when the average tumor volume reached 154 mm^3 (N=8 per group). Tumor volume and body weight were measured twice per week.

The target in another assay is T1, CDK7 (Mus musculus, UniProt Q03147).
T1 construct: endogenous in cells; host or cells: RENCA cells
T1 sequence (Q03147 2-346 limits assumed): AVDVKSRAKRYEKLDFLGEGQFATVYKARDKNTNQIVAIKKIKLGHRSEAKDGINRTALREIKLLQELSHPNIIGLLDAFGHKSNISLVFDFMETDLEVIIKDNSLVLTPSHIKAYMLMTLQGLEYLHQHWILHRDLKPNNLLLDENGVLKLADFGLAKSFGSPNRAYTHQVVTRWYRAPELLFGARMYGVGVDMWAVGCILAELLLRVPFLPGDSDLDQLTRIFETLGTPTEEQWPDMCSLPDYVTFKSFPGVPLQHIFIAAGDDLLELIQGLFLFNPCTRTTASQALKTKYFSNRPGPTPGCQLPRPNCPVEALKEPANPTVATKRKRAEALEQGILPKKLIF
T1 sequence (Q61458 1-323 partner): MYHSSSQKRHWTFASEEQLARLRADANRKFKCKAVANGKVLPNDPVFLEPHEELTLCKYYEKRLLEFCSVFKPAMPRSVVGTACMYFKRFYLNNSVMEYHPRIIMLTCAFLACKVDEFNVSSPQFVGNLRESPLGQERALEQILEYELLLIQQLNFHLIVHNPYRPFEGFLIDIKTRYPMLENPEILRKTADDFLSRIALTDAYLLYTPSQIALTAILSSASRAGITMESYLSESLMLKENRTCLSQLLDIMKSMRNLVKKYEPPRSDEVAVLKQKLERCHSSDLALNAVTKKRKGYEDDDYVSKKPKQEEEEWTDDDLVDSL
T1 sequence (P51949 1-309 partner): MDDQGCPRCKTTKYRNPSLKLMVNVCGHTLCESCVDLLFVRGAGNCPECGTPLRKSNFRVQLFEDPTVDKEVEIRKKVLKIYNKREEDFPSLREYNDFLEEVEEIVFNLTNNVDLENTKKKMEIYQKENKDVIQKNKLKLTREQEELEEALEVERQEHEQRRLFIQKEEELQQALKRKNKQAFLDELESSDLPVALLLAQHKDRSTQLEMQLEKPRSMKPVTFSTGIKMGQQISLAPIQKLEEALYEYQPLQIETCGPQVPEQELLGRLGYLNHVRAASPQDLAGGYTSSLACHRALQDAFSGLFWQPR
Description: Target occupancy assay (Bio-compound 3 pull-down, anti-CDK7 blot). Format: cell-based. The following applies: RENCA cells treated 4 hours; lysate incubated with 1 μM Bio-compound 3. Here is the method: RENCA cells were treated with various concentrations of compound 47 for 4 hours. Cells were washed with ice-cold PBS twice and then lysed with ice-cold lysis buffer (0.025M Tris, 0.15M NaCl, 0.001M EDTA, 1% NP-40, 5% glycerol, pH 7.4) with protease and phosphatase cocktails (Sigma-Aldrich). Lysed cells were centrifuged at 12,000 rpm at 4′C for 10 minutes and then the supernatant was collected. Protein concentrations were determined using a BCA protein quantification kit (Thermo Fisher Scientific, #23227). Equal amounts of protein were incubated with 1 μM of biotinylated compound 3 (Bio-compound 3; biotinylated analog of compound 47) at 4′C overnight and then immunoprecipitated with streptavidin-agarose bead. Pull-downed proteins were eluted, loaded to SDS-PAGE, transferred to a PVDF membrane (MilliporeSigma), and then treated with anti-CDK7 antibody. CDK7 protein was detected by HRP-conjugated secondary antibody. The image was obtained by ImageQuant™ LAS4000.

In a further assay the test system is OVCAR3 tumor. Description: OVCAR3 high-grade serous ovarian cancer cell line-derived xenograft model. It is filed as in vivo, BALB/c nude mice. To be noted: compound 47 3 mg/kg i.p. every day; olaparib 100 mg/kg orally every day; alone or both. Here is the method:
OVCAR3 cells (1×10^7) mixed with matrigel (50:50) were subcutaneously implanted in the right flank of female BALB/c nude mice. Tumor-bearing mice were randomized and treated with compound 47 (3 mg/kg, intraperitoneally every day), olaparib (100 mg/kg, orally every day), or both compound 47 and olaparib when the average tumor volume reached 173 mm^3 (N=8 per group). Tumor volume and body weight were measured twice per week.

Assay [2] concerns phosphorylated form of H2AX (Ser139) in RENCA cells. The assay can be described thus: Western blot analysis of phosphorylated H2AX. It is filed as cell-based, mouse. The following applies: 48 hours. The procedure: RENCA cells were treated with various concentrations of compound 47 in 5% CO2 at 37′C for 48 hours. Cells were washed with ice-cold PBS twice and lysis buffer was added. Cells were collected and kept on the ice for 30 min. Lysed cells were centrifuged at 12,000 rpm at 4′C for 10 minutes, and then the supernatant was collected. Protein concentrations were quantified using a BCA protein Quantification kit. Equal amounts of protein were fractionated by SDS-PAGE, transferred to a PVDF membrane, and then treated with anti-phospho-H2AX (Ser139) antibody. The phosphorylated form of H2AX protein was detected by HRP-conjugated secondary antibody and the signal was obtained with Super Signal Western blot enhancer. The image was acquired by ImageQuant™ LAS 4000.

A further assay has as its system RENCA cells. Description: Cell viability assay (CellTiter-Glo). It is filed as cell-based. To be noted: Mus musculus, 72 hours, read-out: IC50 of RENCA cell growth/viability. Here is the method: RENCA renal adenocarcinoma were treated with various concentrations of compound 47 for 72 hours. Cell viability was measured using the CellTiter-Glo assay system (Promega). Luminescence units were normalized to those of untreated cells and are presented as the percentage of cell viability. IC50 was calculated using the dose-response curve generated by GraphPad Prism.
On the technique in general: ATP-based viability assays read luminescence as a measure of living cells.

Assay [3] deals with g-H2AX or 53BP1 foci in PC3 cells. The assay can be described thus: g-H2AX / 53BP1 foci imaging in PC3 cells after X-ray irradiation. Format: cell-based, human. The following applies: Compound 47 1 hour then X-ray 8, 4 or 2 Gy, 24 hours after irradiation. The procedure:
PC3 cells were treated with DMSO or various concentrations of Compound 47 for 1 hour. Cells were then irradiated with X-ray at set of 225 KV, 17.7 mA for 5 min using a Faxitron Specimen Radiography System (8 Gy, 4 Gy and 2 Gy irradiation, FIGS. 7A-7C, and 7D-7F, respectively). Cells were collected at 1-, 4-, 6-, 24- and 48-hour post X-ray irradiation and stained with HOECHST and anti-phospho-histone H2AX ([…]) or 53BP1. g-H2AX or 53BP1 foci inside the nucleus were identified with Alexa Flour488. Fluorescence images of the foci were obtained using Opera Phenix 3 High-content screening system (×40 objective) and the average granule number f SD of g-H2AX (FIG. 7A to 7C) or of 53BP1 (FIG. 7D to 7F) per cell was determined using MetaXpress software.

Turning to `C=C(F)C(=O)Nc1ccc2c(-c3ccccc3CNc3nc(NC[C@H]4CCNC[C@@H]4O)nc4c(C(C)C)cnn34)nccc2c1` [Compound 47], the inhibition of tumour growth (TGI) with MCF7 tumor is recorded as 81%; with DU145 tumor it was 61%; in the assay on OVCAR3 tumor, 36%. Besides, the “percentage of g-H2AX-positive cells (g-H2AX foci)” value in assay [1] is “increased the percentage of g-H2AX foci in a time- and dose-dependent manner”. Moreover, in the assay on RENCA tumor, the “tumor growth inhibition (TGI)” value worked out at 50.2%. The CDK7 occupancy entry at CDK7 is given as “in a dose dependent manner”. In assay [2], the “phosphorylation of H2AX at Serine-139” value was “induced phosphorylation of H2AX at the Serine-139 residue in a dose dependent manner”. For the same molecule, the IC50 with RENCA cells came out at 20 nM. For the same molecule, the “DNA damage sustaining effect (granule number of g-H2AX or 53BP1 per cell)” value in [3] is reported as “significant DNA damage sustaining effects”.
`C[C@]12CC[C@@H]3c4ccc(O)cc4C[C@@H](CCCCCCCCC[S+]([O-])CCCC(F)(F)C(F)(F)F)[C@H]3[C@@H]1CC[C@@H]2O` (stereo partly drawn) [fulvestrant, reference compound]: the TGI in the assay on MCF7 tumor came to 81%.
Turning to `CC(=O)O[C@@]12CO[C@@H]1C[C@H](O)[C@@]1(C)C(=O)[C@H](O)C3=C(C)[C@@H](OC(=O)[C@H](O)[C@@H](NC(=O)OC(C)(C)C)c4ccccc4)C[C@@](O)([C@@H](OC(=O)c4ccccc4)[C@H]21)C3(C)C` [docetaxel, reference compound], the TGI in the assay on DU145 tumor is listed as 25%.
In the assay on OVCAR3 tumor, `O=C(c1cc(Cc2n[nH]c(=O)c3ccccc23)ccc1F)N1CCN(C(=O)C2CC2)CC1` [olaparib, reference compound] gave an inhibition of tumour growth (TGI) of 38%.
